Key:
Experiment in all cases: spectrofluorometric titration of purified protein
Type in all cases: binding
[1] = biological target: T1, FAST-R52K (Fluorescence-Activating and Absorption-Shifting Tag) (Halorhodospira halophila, UniProt P16113, R52K/C69G/Y94W/T95M/F96I/D97P/Y98T/Q99S/M100R)
T1 construct: gene pyp

[2] = biological target: T2, FAST-P68T (Fluorescence-Activating and Absorption-Shifting Tag) (Halorhodospira halophila, UniProt P16113, P68T/C69G/Y94W/T95M/F96I/D97P/Y98T/Q99S/M100R)
T2 construct: gene pyp

[3] = biological target: T3, FAST-P68K (Fluorescence-Activating and Absorption-Shifting Tag) (Halorhodospira halophila, UniProt P16113, P68K/C69G/Y94W/T95M/F96I/D97P/Y98T/Q99S/M100R)
T3 construct: gene pyp

[4] = biological target: T4, FAST-F62L (Fluorescence-Activating and Absorption-Shifting Tag) (Halorhodospira halophila, UniProt P16113, F62L/C69G/Y94W/T95M/F96I/D97P/Y98T/Q99S/M100R)
T4 construct: gene pyp
T4 sequence (P16113 whole entry F62L/C69G/Y94W/T95M/F96I/D97P/Y98T/Q99S/M100R): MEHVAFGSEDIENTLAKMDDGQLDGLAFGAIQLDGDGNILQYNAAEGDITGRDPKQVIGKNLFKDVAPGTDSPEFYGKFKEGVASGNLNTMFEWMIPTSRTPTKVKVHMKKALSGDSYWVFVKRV

T3 sequence (P16113 whole entry P68K/C69G/Y94W/T95M/F96I/D97P/Y98T/Q99S/M100R): as the sequence (P16113 whole entry F62L/C69G/Y94W/T95M/F96I/D97P/Y98T/Q99S/M100R) above, with L62F, P68K counted along it
T1 sequence (P16113 whole entry R52K/C69G/Y94W/T95M/F96I/D97P/Y98T/Q99S/M100R): as the sequence (P16113 whole entry F62L/C69G/Y94W/T95M/F96I/D97P/Y98T/Q99S/M100R) above, with R52K, L62F counted along it
T2 sequence (P16113 whole entry P68T/C69G/Y94W/T95M/F96I/D97P/Y98T/Q99S/M100R): as the sequence (P16113 whole entry F62L/C69G/Y94W/T95M/F96I/D97P/Y98T/Q99S/M100R) above, with L62F, P68T counted along it

SMILES	Kd [1] [nM]	Kd [2] [nM]	Kd [3] [nM]	Kd [4] [nM]
Cc1cc(/C=C2\SC(=S)NC2=O)c(C)cc1O [HBR-2,5-DM]	46	90	84	
COc1cc(/C=C2\N=C(C(F)(F)F)N(C)C2=O)c(OC)cc1O [25DOM-HBI-2T, (Z)-5-(4-hydroxy-2,5-dimethoxybenzylidene)-3-methyl-2-(trifluoromethyl)-3,5-dihydro-4H-imidazol-4-one]	440		340	
COc1cc(/C=C2\SC(=S)NC2=O)c(OC)cc1O [HBR-DOM2, (Z)-5-(4-hydroxy-2,5-dimethoxybenzylidene)-2-thioxothiazolidin-4-ones]	35		30	36

Source: paper PMC11219735, “Fluorescence lifetime multiplexing with fluorogen activating protein FAST variants” (Communications Biology, 2024)
